Activity calls are given as the source filed them. The rule behind the calls is not given here.
Experiments:
Assay type in all cases: functional, organism-based
[1] = species: Cavia porcellus; experiment: Antagonism of the isoprenaline-induced positive chronotropic effect on the atria of guinea pig; Inactive at 1e-4 mol/L
[2] = species: Cavia porcellus; experiment: The apparent pA2 value was measured for beta-2-adrenergic blocking activity on the trachea of guinea pig; Inactive at 3e-4
[3] = species: Cavia porcellus; experiment: Antagonism of the isoprenaline-induced positive chronotropic effect on the atria of guinea pig at 3e-4 M/l; details: read-out: pA2 (converted)

SMILES | pA2 [1] | pA2 [2] | Kb [3] [µM]
CC(C)(C)NCC(O)CO (stereo not drawn) | inactive | – | –
CC(C)NCC(O)CNC(C)C | – | inactive | 200

From ChEMBL document CHEMBL1121606, “Synthesis and beta-adrenergic blocking activity of new aliphatic oxime ethers” (J Med Chem, 1980)
